Source: ChEMBL document CHEMBL5131411, “Evaluation of amentoflavone metabolites on PARP-1 inhibition and the potentiation on anti-proliferative effects of carboplatin in A549 cells” (Bioorg Med Chem Lett, 2022)
pIC50: −log10 of the molar value. The source made the active and inactive calls. The calls are words filed in the database; no cut-off is given here.

Key:
A549 [1] = assay: Potentiation of carboplatin induced antiproliferative activity against human A549 cells assessed as increase in apoptotic cells at 0.1 to 10 uM by Annexin V-PI double staining based flow cytometric analysis; format: functional, cell-based; conditions: dose 0.1-10 µM
A549 [2] = assay: Potentiation of carboplatin induced antiproliferative activity against human A549 cells assessed as increase in apoptotic cells at 0.1 to 10 uM by Hoechst staining based assay; format: functional, cell-based; conditions: dose 0.1-10 µM
[3] = target: Poly [ADP-ribose] polymerase 1 (Homo sapiens, UniProt P09874); assay: Inhibition of PARP1 (unknown origin); conditions: for pIC50: read-out: IC50
Sequence of Poly [ADP-ribose] polymerase 1 (P09874 whole entry): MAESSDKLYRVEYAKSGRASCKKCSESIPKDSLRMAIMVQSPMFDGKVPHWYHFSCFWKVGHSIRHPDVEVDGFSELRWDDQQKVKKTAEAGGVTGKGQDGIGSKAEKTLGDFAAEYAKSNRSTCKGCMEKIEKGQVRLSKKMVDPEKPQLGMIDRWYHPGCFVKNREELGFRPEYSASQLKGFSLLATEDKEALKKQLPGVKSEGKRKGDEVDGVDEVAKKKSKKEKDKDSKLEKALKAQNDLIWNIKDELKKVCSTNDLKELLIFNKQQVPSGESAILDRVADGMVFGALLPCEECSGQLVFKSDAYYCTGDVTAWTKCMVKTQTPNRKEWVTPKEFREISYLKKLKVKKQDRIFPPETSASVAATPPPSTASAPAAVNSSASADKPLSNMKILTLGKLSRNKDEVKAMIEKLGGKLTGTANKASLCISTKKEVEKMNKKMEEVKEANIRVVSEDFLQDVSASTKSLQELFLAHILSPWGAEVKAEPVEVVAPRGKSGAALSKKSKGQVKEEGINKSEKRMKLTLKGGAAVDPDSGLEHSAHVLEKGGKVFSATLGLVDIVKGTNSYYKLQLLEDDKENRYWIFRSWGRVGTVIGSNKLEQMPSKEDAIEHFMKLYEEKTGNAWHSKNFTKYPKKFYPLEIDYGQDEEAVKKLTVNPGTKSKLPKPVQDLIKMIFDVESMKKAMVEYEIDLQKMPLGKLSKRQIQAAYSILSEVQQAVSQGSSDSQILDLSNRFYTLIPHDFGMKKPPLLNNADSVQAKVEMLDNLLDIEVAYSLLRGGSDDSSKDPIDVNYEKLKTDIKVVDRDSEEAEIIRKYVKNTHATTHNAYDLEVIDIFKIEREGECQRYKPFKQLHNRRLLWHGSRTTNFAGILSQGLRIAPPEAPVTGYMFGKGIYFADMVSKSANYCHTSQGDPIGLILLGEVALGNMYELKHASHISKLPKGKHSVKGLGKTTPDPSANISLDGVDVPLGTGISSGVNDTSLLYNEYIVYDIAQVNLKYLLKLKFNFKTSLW

A549 [4] = assay: Potentiation of carboplatin induced antiproliferative activity against human A549 cells assessed as reduction in cell viability at 0.1 to 10 uM by MTT assay; format: functional, cell-based; conditions: dose 0.1-10 µM
A549 [5] = assay: Potentiation of carboplatin induced antiproliferative activity against human A549 cells assessed as increase in apoptotic cells at 10 uM by Annexin V-PI double staining based flow cytometric analysis; format: functional, cell-based
A549 [6] = assay: Potentiation of carboplatin induced antiproliferative activity against human A549 cells assessed as increase in apoptotic cells at 10 uM by Hoechst staining based assay; format: functional, cell-based
A549 [7] = assay: Potentiation of carboplatin induced antiproliferative activity against human A549 cells assessed as reduction in cell viability at 10 uM by MTT assay; format: functional, cell-based

Structure (SMILES)	Activity (A549 [1])	Activity (A549 [2])	IC50 [3] [µg/mL]	pIC50 [3]	Activity (A549 [4])	Activity (A549 [5])	Activity (A549 [6])	Activity (A549 [7])
O=c1cc(-c2ccc(O)c(-c3c(O)cc(O)c4c(=O)cc(-c5ccc(OS(=O)(=O)O)cc5)oc34)c2)oc2cc(O)cc(O)c12	Active	Active	0.0804	6.77	Active	–	–	–
O=c1c(O)c(-c2ccc(O)c(-c3c(O)cc(O)c4c(=O)cc(-c5ccc(O)cc5)oc34)c2)oc2cc(OS(=O)(=O)O)cc(O)c12	–	–	0.1158	6.29	–	–	–	–
O=c1cc(-c2ccc(O)c(-c3c(O)cc(O)c4c(=O)cc(-c5ccc(O)cc5)oc34)c2)oc2cc(O)cc(O)c12 [AMENTOFLAVONE]	–	–	0.1398	6.92	–	Active	Active	Active
O=c1c(O)c(-c2ccc(O)c(-c3c(O)cc(O)c4c(=O)cc(-c5ccc(OS(=O)(=O)O)cc5)oc34)c2)oc2cc(OS(=O)(=O)O)cc(O)c12	–	–	–	6.62	–	–	–	–
